Data reported in paper PMC11477209, “Toxicological Evaluation of Kaempferol and Linearolactone as Treatments for Amoebic Liver Abscess Development in Mesocricetus auratus” (International Journal of Molecular Sciences, 2024).
Converted amounts (≈) assume the structure as drawn.

Assays:
CHO-K1 cells = assay: MTT cytotoxicity assay; type: cell-based, Chinese hamster; conditions: 24 h, MTT
BEAS-2B cells = assay: MTT cytotoxicity assay; type: cell-based, human; conditions: 24 h
[1] = tested on: E. histolytica trophozoites (amoebic liver abscess); assay: Amoebic liver abscess (ALA) model, antiparasitic protocol; type: in vivo, Mesocricetus auratus
Description: M. auratus was used as an animal model because the hamster is naturally susceptible to infection by E. histolytica and can develop amoebic colitis or extraintestinal complications such as an ALA [71]. In this context, the hamster can be used to search for new alternative therapeutic agents against amoebiasis. The hamsters were acquired from Charles River Laboratories Inc. (Wilmington, MA, USA) in 2017 by Centro de Investigación y de Estudios Avanzados del Instituto Politécnico Nacional ([…]-IPN). […] Male hamsters (sexually mature and homozygous) weighing 95 ± 5 g and ≈10 weeks old were selected for the experiments. They were maintained in aseptic conditions at 25 ± 1 °C, 50 ± 3% humidity, a 12 h photoperiod, and ad libitum access to a standard diet (LabDiet; Richmond, IN, USA) and water (Figure 5A). The hamsters were housed in polycarbonate boxes (five per box), with an American Iron and Steel Institute (AISI) lid and wood shavings as bedding, in a controlled room of the Animal Production and Experimentation Unit (UPEAL) from […]-IPN (Figure 5A). Additionally, the health state of the hamsters and their adaptation to the new laboratory conditions were evaluated for 15 days to decrease their stress and anxiety levels. This study was carried out according to the Official Mexican Regulations (NOM-062-ZOO-1999) and NC3Rs ARRIVE [60, 72]. The protocol was approved by the Institutional Animal Care and Use Committee (Reg. No. 0183-16). Finally, the hamsters were not subjected to any previous experimental procedure or any additional treatment before beginning the experimental procedures (see File S1, NC3Rs ARRIVE Guidelines Checklist). Compounds that are prohibited and/or not recommended for use in animals by the American Veterinary Medical Association (Guidelines for the Euthanasia of Animals) were not used.
These experiments were performed with three independent biological replicates. For each replicate, twenty-five hamsters were randomly distributed (simple type) into five experimental groups (five animals per group). The sample size was determined based on the Organization for Economic Cooperation and Development (OECD) recommendations that establish the minimum number of individuals required for the tests so as not to sacrifice animals unnecessarily. Laparotomy was performed in aseptic conditions by using depilation, iodine solution, as well as sterile field cloths. Subsequently, an intra-hepatic puncture was made to deliver 1.5 × 10^6 virulent E. histolytica trophozoites in 100 μL of 1× PBS into the left hepatic lobe for ALA induction (Figure 5A-3). The injection site was immediately covered by applying a gel foam pad to maintain hemostasis. The abdominal layers were sutured discontinuously by single vertical stitches using Vicryl synthetic absorbable suture with a triangular pointed half circle needle. Irregular edges or folds in the surgical wound were eliminated to avoid tissue devitalization or possible infections. The development of a hepatic ALA was monitored for 4 days (Figure 5A-4).
(Figure 5B). The compounds were administered by the i.p. route because the peritoneal cavity presents rapid fluid absorption into the bloodstream, and initial biotransformation by the gastrointestinal tract is avoided. […] The hamsters were evaluated 24 h post-treatment to detect any signs of discomfort/pain or toxicity. The humane endpoint criteria used in this study were >20% body weight loss overnight, cachexia, recumbence, lethargy, respiratory distress, inability to reach food and water, lack of grooming, and ulceration around the surgical site, among others. Additionally, the weight of hamsters was determined at the beginning and end of the experiment with an electronic bascule (CS200, Ohaus; Parsippany, NJ, USA), and the ALA volume was calculated based on imaging (Figure 5B-1). […]

[2] = in vivo
Protocol: After blood samples were obtained, the hamsters were sacrificed with a lethal dose of sodium pentobarbital, followed by a cervical fracture. They were mounted on a dissecting board for the necropsy. A complete mid-laparotomy was performed to remove the lungs, spleen, heart, liver, and kidneys. An excisional biopsy was performed to recover the ALA lesions for morphometric analysis. The organs and ALA lesions were rinsed with 1× PBS, weighed, and adherent tissue was removed. […] Later, the inclusion protocol was performed to obtain histological sections (3 μm thick) with a rotatory microtome (RM2125-RTS, Leica; Wetzlar, Germany). Tissue slices were stained with hematoxylin-eosin (Merck; Rahway, NJ, USA), mounted on coverslips with Entellan^TM-New (Merck; Rahway, NJ, USA), and observed with optical microscopy (Eclipse 80i, Nikon; Tokio, Japan).

[3] = tested on: E. histolytica trophozoites (virulent HM-1 strain); conditions: 48 h
[4] = ALA hamsters
[5] = tested on: E. histolytica trophozoites; conditions: 48 h; ref [12],[13]; read-out: IC50 E. histolytica trophozoites (antiproliferative activity); cited from earlier work
[6] = tested on: E. histolytica trophozoites (virulent HM-1 strain); assay: microbe, parasite or virus in culture; conditions: Entamoeba histolytica, 48 h, read-out: IC50 HM-1, 48 h, flow cytometry
[7] = MTZ 0.16, KP 31.6, LL 15.6 μg/mL

## C[C@]12C[C@H](c3ccoc3)OC(=O)[C@H]1CCC13COC(=O)C1=CC=C[C@H]32 (stereo partly drawn) [LL, (4S,7R,9R,10S)-7-(furan-3-yl)-9-methyl-6,16-dioxatetracyclo[8.7.0.01,14.04,9]heptadeca-11,13-diene-5,15-dione]
CHO-K1 cells
  biological activity symbol on IC50 CHO-K1: -
CHO-K1 cells; Cricetulus griseus, CHO-K1, read-out: IC50 CHO-K1
  IC50: 300 µg/mL (≈ 881 µM)
BEAS-2B cells
  biological activity symbol on IC50 BEAS-2B: -
BEAS-2B cells; Homo sapiens, BEAS-2B
  IC50: 200 µg/mL (≈ 588 µM)
[1]; ALA characteristics
  Edges: Regular and well defined
  Leukocyte infiltrate: +/−
  Liquid: −
  Morphology: Loculated ovoid
[1]; MRI, i.p. 4 days
  ALA Volume: 562.3 ± 23.3 * mm^3
[1]; T1
  MRI T1 signal of ALA: Intermediate intensity
[1]; T2
  MRI T2 signal of ALA: hypointense
[1]; i.p. 4 days, KP 5, LL 10, MTZ 10 mg/kg/day
  ALA Weight: 0.40 ± 0.20 g
[2]
  Heart largest diameter: 1.1 ± 0.07 cm
  Heart weight: 0.38 ± 0.08 g
  Kidneys largest diameter: 1.1 ± 0.08 cm
  Kidneys weight: 0.49 ± 0.07 g
  Liver largest diameter: 3.94 ± 0.16 cm
  Liver weight: 5.5 ± 0.9 g
  Lungs largest diameter: 2.4 ± 0.1 cm
  Lungs weight: 0.74 ± 0.06 g
  Spleen largest diameter: 3.4 ± 0.4 cm
  Spleen weight: 0.26 ± 0.05 g
[3]
  biological activity symbol on IC50 HM-1: +
[3]; flow cytometry
  IC50 HM-1: < 7.8 µg/mL
[3]; [7]
  apoptotic trophozoites: 4.3%
  necrotic trophozoites: 90.1%
[3]; MTZ 0.16, KP 31.6, LL 15.6 μg/mL, vs Vh
  decrease of size and granularity of the cell population: 66%
[4]
  change in body weight compared with the control (disease-free) group: −0.21%
[4]; i.p. 4 days
  Hamster weight: 93.4 ± 7.2 g
  Survival rate: 100%
  Toxicity signs: None
[5]
  IC50: 22.9 µM
[6]
  IC50: 7.8 µg/mL (≈ 22.9 µM)
